In ChEMBL document CHEMBL3739370, “Synthesis and evaluation of amide, sulfonamide and urea benzisoxazole derivatives as potential atypical antipsychotics” (Medchemcomm, 2015):
pKi: −log10 of the molar value.

Tests used:
[1] = molecular target: 5-hydroxytryptamine receptor 2A (Rattus norvegicus, UniProt P14842); assay: Displacement of [3H]ketanserin from 5HT2A receptor in rat brain cortex; format: tissue-based
[2] = molecular target: T1, 5-hydroxytryptamine receptor 1A (Rattus norvegicus, UniProt P19327); assay: Displacement of [3H]8-OH-DPAT from 5HT1A receptor in rat brain cortex; format: tissue-based
T1 sequence (P19327 whole entry): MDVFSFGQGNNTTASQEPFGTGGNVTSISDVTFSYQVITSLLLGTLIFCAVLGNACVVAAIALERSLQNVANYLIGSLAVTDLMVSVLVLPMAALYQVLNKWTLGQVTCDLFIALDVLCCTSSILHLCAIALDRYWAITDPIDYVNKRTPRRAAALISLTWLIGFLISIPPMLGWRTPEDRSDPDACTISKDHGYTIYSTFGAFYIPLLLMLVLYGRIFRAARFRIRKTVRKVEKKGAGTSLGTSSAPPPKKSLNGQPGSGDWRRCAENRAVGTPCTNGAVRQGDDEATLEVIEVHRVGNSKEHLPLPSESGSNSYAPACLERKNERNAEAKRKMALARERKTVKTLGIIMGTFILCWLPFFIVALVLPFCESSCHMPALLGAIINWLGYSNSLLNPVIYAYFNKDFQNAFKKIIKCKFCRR

[3] = molecular target: D(2) dopamine receptor (Rattus norvegicus, UniProt P61169); assay: Displacement of [3H]spiperone from dopamine D2 receptor in rat striatum
[4] = tested on: Mus musculus; assay: Antipsychotic activity in po dosed mouse assessed as reversal of apomorphine-induced climbing activity; format: functional
[5] = tested on: Mus musculus; assay: Antipsychotic activity in po dosed mouse assessed as reversal of MK-801-induced hyperactivity; format: functional
[6] = tested on: Mus musculus; assay: Antipsychotic activity in po dosed mouse assessed as reversal of DOI-induced head twitch activity; format: functional
[7] = tested on: Mus musculus; assay: Toxicity in po dosed mouse assessed as catalepsy; format: organism-based; settings: in vivo
[8] = tested on: Mus musculus; assay: Selectivity ratio of ED50 for po dosed mouse assessed as catalepsy to ED50 for po dosed mouse assessed as reversal of apomorphine-induced climbing activity
[9] = tested on: Mus musculus; assay: Selectivity ratio of ED50 for po dosed mouse assessed as catalepsy to ED50 for po dosed mouse assessed as reversal of MK-801-induced hyperactivity

Chain of D(2) dopamine receptor (P61169 whole entry): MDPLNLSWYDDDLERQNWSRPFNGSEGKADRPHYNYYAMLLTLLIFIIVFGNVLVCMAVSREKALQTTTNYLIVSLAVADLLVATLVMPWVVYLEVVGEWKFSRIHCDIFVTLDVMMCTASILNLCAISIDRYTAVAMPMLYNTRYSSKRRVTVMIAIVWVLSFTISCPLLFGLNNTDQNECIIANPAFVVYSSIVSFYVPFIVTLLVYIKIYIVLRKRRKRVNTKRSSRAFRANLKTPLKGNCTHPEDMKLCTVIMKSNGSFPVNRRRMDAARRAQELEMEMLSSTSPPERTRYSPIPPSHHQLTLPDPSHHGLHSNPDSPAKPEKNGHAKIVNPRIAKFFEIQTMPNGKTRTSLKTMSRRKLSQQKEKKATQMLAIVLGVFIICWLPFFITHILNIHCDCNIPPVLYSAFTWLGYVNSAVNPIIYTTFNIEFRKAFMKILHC
Chain of 5-hydroxytryptamine receptor 2A (P14842 whole entry): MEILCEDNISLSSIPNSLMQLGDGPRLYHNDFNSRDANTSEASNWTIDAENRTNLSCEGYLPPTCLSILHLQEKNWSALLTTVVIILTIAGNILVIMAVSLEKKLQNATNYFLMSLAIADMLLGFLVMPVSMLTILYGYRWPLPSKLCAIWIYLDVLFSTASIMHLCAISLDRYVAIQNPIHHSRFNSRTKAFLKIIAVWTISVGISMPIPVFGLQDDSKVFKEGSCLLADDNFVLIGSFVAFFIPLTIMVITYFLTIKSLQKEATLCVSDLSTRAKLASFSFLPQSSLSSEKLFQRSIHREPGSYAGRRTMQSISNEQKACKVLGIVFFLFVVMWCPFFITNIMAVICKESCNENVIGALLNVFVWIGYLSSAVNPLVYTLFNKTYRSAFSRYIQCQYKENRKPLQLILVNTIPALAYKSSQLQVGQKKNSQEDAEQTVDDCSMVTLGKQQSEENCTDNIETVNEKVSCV

Row | Structure (SMILES) | pKi [1] | pKi [2] | pKi [3] | also measured
1 | CN(C)C(=O)N1CCC(CN2CCC(c3noc4cc(F)ccc34)CC2)CC1 | 6.25 | < 5.00 | < 5.00 | –
2 | Cc1nc2n(c(=O)c1CCN1CCC(c3noc4cc(F)ccc34)CC1)CCCC2 [RISPERIDONE] | – | – | – | ED50 [4]: 0.012 mg/kg; ED50 [5]: 0.013 mg/kg; ED50 [6]: 0.038 mg/kg; ED50 [7]: 0.38 mg/kg
3 | O=C(C1CC1)N1CCC(CN2CCC(c3noc4cc(F)ccc34)CC2)CC1 | 6.67 | < 5.00 | < 5.00 | –
4 | O=C(NCc1ccccc1)N1CCC(CN2CCC(c3noc4cc(F)ccc34)CC2)CC1 | 6.58 | < 5.00 | 5.90 | –
5 | O=C(CCCN1CCC(O)(c2ccc(Cl)cc2)CC1)c1ccc(F)cc1 [HALOPERIDOL] | – | – | – | Ratio ED50 [8]: 2.8; Ratio ED50 [9]: 3.4; ED50 [4]: 0.17 mg/kg; ED50 [5]: 0.14 mg/kg; ED50 [7]: 0.47 mg/kg
6 | O=C(Nc1ccc(Cl)cc1)N1CCC(CN2CCC(c3noc4cc(F)ccc34)CC2)CC1 | 8.17 | 6.52 | 7.07 | –
7 | O=[N+]([O-])c1ccc(S(=O)(=O)N2CCC(CCN3CCC(c4noc5cc(F)ccc45)CC3)CC2)cc1 | 7.18 | 5.86 | < 5.00 | –
8 | CC(C)(C)C(=O)N1CCC(CN2CCC(c3noc4cc(F)ccc34)CC2)CC1 | 6.51 | < 5.00 | < 5.00 | –
9 | O=S(=O)(c1ccccc1)N1CCC(CN2CCC(c3noc4cc(F)ccc34)CC2)CC1 | < 5.00 | < 5.00 | 5.60 | –
10 | CN1CCN(C2=Nc3cc(Cl)ccc3Nc3ccccc32)CC1 [CLOZAPINE] | – | – | – | ED50 [4]: 4.52 mg/kg; ED50 [5]: 2.11 mg/kg; ED50 [7]: 55.89 mg/kg
11 | O=S(=O)(c1cccs1)N1CCC(CN2CCC(c3noc4cc(F)ccc34)CC2)CC1 | 6.34 | 6.78 | 5.89 | –

The remaining molecules from weak to strong by pKi [1], led by results:

Row | pKi [1] | pKi [2] | pKi [3] | Structure (SMILES) | also measured
12 | 5.67 | < 5.00 | < 5.00 | O=C(/C=C/c1ccccc1)N1CCC(CN2CCC(c3noc4cc(F)ccc34)CC2)CC1 | –
13 | 5.82 | < 5.00 | 5.89 | Cc1ccc(S(=O)(=O)N2CCC(CN3CCC(c4noc5cc(F)ccc45)CC3)CC2)cc1 | –
14 | 5.96 | < 5.00 | < 5.00 | CCN(C)C(=O)N1CCC(CN2CCC(c3noc4cc(F)ccc34)CC2)CC1 | –
15 | 6.43 | 6.10 | 6.68 | O=S(=O)(c1ccc(F)cc1)N1CCC(CN2CCC(c3noc4cc(F)ccc34)CC2)CC1 | –
16 | 6.87 | 6.04 | 6.12 | O=[N+]([O-])c1cccc(S(=O)(=O)N2CCC(CN3CCC(c4noc5cc(F)ccc45)CC3)CC2)c1 | –
17 | 6.92 | 5.60 | 5.92 | COc1ccc(C(=O)N2CCC(CN3CCC(c4noc5cc(F)ccc45)CC3)CC2)cc1 | –
18 | 6.94 | 6.22 | 5.89 | O=C(c1ccccc1)N1CCC(CN2CCC(c3noc4cc(F)ccc34)CC2)CC1 | –
19 | 6.95 | 6.32 | 6.72 | N#Cc1ccc(S(=O)(=O)N2CCC(CN3CCC(c4noc5cc(F)ccc45)CC3)CC2)cc1 | –
20 | 7.14 | 6.57 | 6.71 | O=C(c1ccc([N+](=O)[O-])cc1)N1CCC(CN2CCC(c3noc4cc(F)ccc34)CC2)CC1 | –
21 | 7.49 | 5.92 | 5.86 | O=S(=O)(c1ccc2ccccc2c1)N1CCC(CN2CCC(c3noc4cc(F)ccc34)CC2)CC1 | –
22 | 7.52 | 6.00 | 5.96 | O=[N+]([O-])c1ccc(S(=O)(=O)N2CCCC(CN3CCC(c4noc5cc(F)ccc45)CC3)C2)cc1 (stereo not drawn) | –
23 | 7.57 | 6.56 | 6.75 | Cc1ccc(NC(=O)N2CCC(CN3CCC(c4noc5cc(F)ccc45)CC3)CC2)cc1 | –
24 | 7.57 | 6.00 | 6.23 | O=[N+]([O-])c1ccccc1S(=O)(=O)N1CCC(CN2CCC(c3noc4cc(F)ccc34)CC2)CC1 | –
25 | 7.72 | 6.80 | 7.06 | O=C(c1ccc(F)cc1)N1CCC(CN2CCC(c3noc4cc(F)ccc34)CC2)CC1 | –
